Experimental data: PubChem BioAssay (NCI)
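Tested at 5 concentrations; 48 h exposure; 96-well plates; endpoints linearly interpolated, else capped at highest concentration. GI50: concentration for 50% inhibition of growth. TGI denotes the concentration required for complete inhibition of growth.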

Tests used:
Assay in all cases: NCI anticancer screen, dose series, 48 h
SK-MEL-2 melanoma = tested on: SK-MEL-2 melanoma
UACC-257 melanoma = tested on: UACC-257 melanoma
MDA-MB-231 breast = tested on: MDA-MB-231 breast
NCI-H226 lung = tested on: NCI-H226 lung
CCRF-CEM leukemia = tested on: CCRF-CEM leukemia
SF-539 CNS = tested on: SF-539 CNS
MALME-3M melanoma = tested on: MALME-3M melanoma
OVCAR-8 ovarian = tested on: OVCAR-8 ovarian
A549 NSCLC = tested on: A549 NSCLC
SF-268 CNS = tested on: SF-268 CNS
MOLT-4 leukemia = tested on: MOLT-4 leukemia
OVCAR-3 ovarian = tested on: OVCAR-3 ovarian
MCF7 breast = tested on: MCF7 breast
SR leukemia = tested on: SR leukemia
K-562 leukemia = tested on: K-562 leukemia
HT29 colon = tested on: HT29 colon
UO-31 renal = tested on: UO-31 renal
OVCAR-5 ovarian = tested on: OVCAR-5 ovarian
SK-MEL-5 melanoma = tested on: SK-MEL-5 melanoma
HOP-62 NSCLC = tested on: HOP-62 NSCLC
RXF 393 renal = tested on: RXF 393 renal
HCT-15 colon = tested on: HCT-15 colon
OVCAR-4 ovarian = tested on: OVCAR-4 ovarian
M14 melanoma = tested on: M14 melanoma
LOX IMVI melanoma = tested on: LOX IMVI melanoma
TK-10 renal = tested on: TK-10 renal
HS 578T breast = tested on: HS 578T breast
SNB-19 CNS = tested on: SNB-19 CNS
SK-OV-3 ovarian = tested on: SK-OV-3 ovarian
UACC-62 melanoma = tested on: UACC-62 melanoma
SK-MEL-28 melanoma = tested on: SK-MEL-28 melanoma
HL-60(TB) leukemia = tested on: HL-60(TB) leukemia
EKVX NSCLC = tested on: EKVX NSCLC
NCI-H460 lung = tested on: NCI-H460 lung
U251 CNS = tested on: U251 CNS
786-0 renal = tested on: 786-0 renal
KM12 colon = tested on: KM12 colon
MDA-MB-435 = tested on: MDA-MB-435
T-47D breast = tested on: T-47D breast
SNB-75 CNS = tested on: SNB-75 CNS
PC-3 prostate = tested on: PC-3 prostate
DU-145 prostate = tested on: DU-145 prostate
HCC-2998 colon = tested on: HCC-2998 colon
IGROV1 ovarian = tested on: IGROV1 ovarian
COLO 205 colon = tested on: COLO 205 colon
HCT-116 colon = tested on: HCT-116 colon
NCI-H23 lung = tested on: NCI-H23 lung
CAKI-1 renal = tested on: CAKI-1 renal
RPMI-8226 leukemia = tested on: RPMI-8226 leukemia
BT-549 breast = tested on: BT-549 breast
SF-295 CNS = tested on: SF-295 CNS
HOP-92 NSCLC = tested on: HOP-92 NSCLC
NCI/ADR-RES ovarian = tested on: NCI/ADR-RES ovarian
NCI-H522 lung = tested on: NCI-H522 lung
ACHN renal = tested on: ACHN renal
A498 renal = tested on: A498 renal
SW-620 colon = tested on: SW-620 colon
SN12C renal = tested on: SN12C renal

`CC1(C)C(N(O)C(=O)Nc2ccc(Cl)cc2)N(c2ccc(Cl)cc2)C(=O)N1CC(=O)N/N=C/C=C/c1ccc([N+](=O)[O-])o1` (stereo not drawn) showed a GI50 (SK-MEL-2 melanoma) of 946 nM, a TGI (SK-MEL-2 melanoma) of 4420 nM and a GI50 (UACC-257 melanoma) of 1580 nM. For the same molecule, the TGI (UACC-257 melanoma) was 3520 nM, the GI50 (MDA-MB-231 breast) was 2040 nM and the TGI (MDA-MB-231 breast) was 7570 nM. The GI50 (NCI-H226 lung) was 1990 nM, the TGI (NCI-H226 lung) was 4880 nM and the GI50 (CCRF-CEM leukemia) was 604 nM. For the same molecule, the TGI (CCRF-CEM leukemia) was 2200 nM, the GI50 (SF-539 CNS) was 1810 nM and the TGI (SF-539 CNS) was 3810 nM. It also gave a GI50 (MALME-3M melanoma) of 1290 nM, a TGI (MALME-3M melanoma) of 3080 nM and a GI50 (OVCAR-8 ovarian) of 1860 nM. For the same molecule, the GI50 (A549 NSCLC) was 3110 nM, the TGI (A549 NSCLC) was > 28500 nM and the GI50 (SF-268 CNS) was 3800 nM. For the same molecule, the TGI (SF-268 CNS) was > 59000 nM, the GI50 (MOLT-4 leukemia) was 804 nM and the TGI (MOLT-4 leukemia) was 4470 nM. For the same molecule, the GI50 (OVCAR-3 ovarian) was 1490 nM, the TGI (OVCAR-3 ovarian) was 3960 nM and the GI50 (MCF7 breast) was 1010 nM. For the same molecule, the TGI (MCF7 breast) was > 26700 nM, the GI50 (SR leukemia) was 273 nM and the TGI (SR leukemia) was 1950 nM. It also gave a GI50 (K-562 leukemia) of 1570 nM, a TGI (K-562 leukemia) of 6030 nM and a GI50 (HT29 colon) of 1920 nM. For the same molecule, the TGI (HT29 colon) was > 22600 nM, the GI50 (UO-31 renal) was 2640 nM and the TGI (UO-31 renal) was > 20800 nM. The GI50 (OVCAR-5 ovarian) was 3810 nM, the TGI (OVCAR-5 ovarian) was 14000 nM and the GI50 (SK-MEL-5 melanoma) was 1320 nM. The TGI (SK-MEL-5 melanoma) was 2760 nM, the GI50 (HOP-62 NSCLC) was 2760 nM and the TGI (HOP-62 NSCLC) was 6200 nM. It also gave a GI50 (RXF 393 renal) of 337 nM, a TGI (RXF 393 renal) of 1640 nM and a GI50 (HCT-15 colon) of 2490 nM. For the same molecule, the TGI (HCT-15 colon) was > 100000 nM, the GI50 (OVCAR-4 ovarian) was 3870 nM and the TGI (OVCAR-4 ovarian) was > 100000 nM. It also gave a GI50 (M14 melanoma) of 1880 nM, a TGI (M14 melanoma) of 7080 nM and a GI50 (LOX IMVI melanoma) of 1560 nM. For the same molecule, the TGI (LOX IMVI melanoma) was 3040 nM, the GI50 (TK-10 renal) was 4060 nM and the TGI (TK-10 renal) was > 100000 nM. The GI50 (HS 578T breast) was 3000 nM, the TGI (HS 578T breast) was > 84400 nM and the GI50 (SNB-19 CNS) was 2270 nM. For the same molecule, the TGI (SNB-19 CNS) was 6730 nM, the GI50 (SK-OV-3 ovarian) was 4480 nM and the TGI (SK-OV-3 ovarian) was > 100000 nM. It also gave a GI50 (UACC-62 melanoma) of 1350 nM, a TGI (UACC-62 melanoma) of 3910 nM and a GI50 (SK-MEL-28 melanoma) of 1610 nM. For the same molecule, the TGI (SK-MEL-28 melanoma) was 3160 nM, the GI50 (HL-60(TB) leukemia) was 1090 nM and the TGI (HL-60(TB) leukemia) was 4000 nM. The GI50 (EKVX NSCLC) was 3170 nM, the TGI (EKVX NSCLC) was > 83400 nM and the GI50 (NCI-H460 lung) was 2270 nM. The TGI (NCI-H460 lung) was 6390 nM, the GI50 (U251 CNS) was 1570 nM and the TGI (U251 CNS) was > 20700 nM. It also gave a GI50 (786-0 renal) of 2750 nM, a TGI (786-0 renal) of 10300 nM and a GI50 (KM12 colon) of 1710 nM. It also gave a TGI (KM12 colon) of 3760 nM, a GI50 (MDA-MB-435) of 2610 nM and a TGI (MDA-MB-435) of 10900 nM. For the same molecule, the GI50 (T-47D breast) was 3470 nM, the TGI (T-47D breast) was > 70100 nM and the GI50 (SNB-75 CNS) was 1880 nM. For the same molecule, the TGI (SNB-75 CNS) was 7110 nM, the GI50 (PC-3 prostate) was 679 nM and the GI50 (DU-145 prostate) was 1850 nM. For the same molecule, the TGI (DU-145 prostate) was 4070 nM, the GI50 (HCC-2998 colon) was 1700 nM and the TGI (HCC-2998 colon) was 3430 nM. For the same molecule, the GI50 (IGROV1 ovarian) was 2460 nM, the GI50 (COLO 205 colon) was 1330 nM and the TGI (COLO 205 colon) was 2850 nM. It also gave a GI50 (HCT-116 colon) of 731 nM, a TGI (HCT-116 colon) of 2520 nM and a GI50 (NCI-H23 lung) of 2130 nM. For the same molecule, the TGI (NCI-H23 lung) was 5560 nM, the GI50 (CAKI-1 renal) was > 23200 nM and the TGI (CAKI-1 renal) was > 100000 nM. The GI50 (RPMI-8226 leukemia) was 327 nM, the TGI (RPMI-8226 leukemia) was 1630 nM and the GI50 (BT-549 breast) was 1600 nM. For the same molecule, the TGI (BT-549 breast) was 5190 nM, the GI50 (SF-295 CNS) was 2550 nM and the TGI (SF-295 CNS) was > 100000 nM. The GI50 (HOP-92 NSCLC) was 522 nM, the TGI (HOP-92 NSCLC) was 2310 nM and the GI50 (NCI/ADR-RES ovarian) was > 100000 nM. The TGI (NCI/ADR-RES ovarian) was > 100000 nM, the GI50 (NCI-H522 lung) was 2230 nM and the TGI (NCI-H522 lung) was > 21300 nM. The GI50 (ACHN renal) was 3160 nM, the TGI (ACHN renal) was > 100000 nM and the GI50 (A498 renal) was 1730 nM. It also gave a TGI (A498 renal) of 4120 nM, a GI50 (SW-620 colon) of 1310 nM and a TGI (SW-620 colon) of 3520 nM. For the same molecule, the GI50 (SN12C renal) was 1730 nM and the TGI (SN12C renal) was 9730 nM.
